pKi: −log10 of the molar value.
Key:
[1] = target: PSMA (Homo sapiens, UniProt Q04609); conditions: read-out: Ki (PSMA inhibition); cited from earlier work
[2] = tested on: PSMA+PiP tumors; conditions: radiolabeled version; cited from earlier work
[3] = tested on: PSMA+ PC-3 PiP and PSMA− PC-3 flu tumors; experiment: Biodistribution of [177Lu]VK-03-27 without and with co-injection of competing inhibitor VK-03-27; assay type: in vivo, mice; conditions: VK-03-27 (no Lu complex) as the CI

Sequence of PSMA (Q04609 whole entry): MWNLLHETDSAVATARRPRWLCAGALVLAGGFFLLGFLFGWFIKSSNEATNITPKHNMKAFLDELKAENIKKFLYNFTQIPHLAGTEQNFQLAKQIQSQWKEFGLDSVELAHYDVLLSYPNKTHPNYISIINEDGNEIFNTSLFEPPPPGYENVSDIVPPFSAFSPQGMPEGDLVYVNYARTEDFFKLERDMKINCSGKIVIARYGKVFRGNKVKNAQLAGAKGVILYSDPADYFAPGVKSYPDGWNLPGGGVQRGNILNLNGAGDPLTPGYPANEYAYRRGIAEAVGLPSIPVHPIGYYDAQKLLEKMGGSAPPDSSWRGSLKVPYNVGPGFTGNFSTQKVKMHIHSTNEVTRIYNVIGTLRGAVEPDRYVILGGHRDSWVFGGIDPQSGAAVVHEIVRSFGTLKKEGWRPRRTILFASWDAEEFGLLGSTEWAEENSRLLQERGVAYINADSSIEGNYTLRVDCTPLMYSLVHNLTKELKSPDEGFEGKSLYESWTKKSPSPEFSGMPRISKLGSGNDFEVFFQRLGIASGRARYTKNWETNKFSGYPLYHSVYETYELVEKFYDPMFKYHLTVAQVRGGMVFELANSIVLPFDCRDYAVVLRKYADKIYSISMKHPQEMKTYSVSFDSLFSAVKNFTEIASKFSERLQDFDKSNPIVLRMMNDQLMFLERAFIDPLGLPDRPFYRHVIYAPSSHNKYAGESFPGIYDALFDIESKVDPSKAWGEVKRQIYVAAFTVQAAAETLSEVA

| Structure (SMILES) | pKi [1] | renal uptake (in words) [2] | uptake in PSMA+ PiP tumors (in words) [2] | effect of competing inhibitor on uptake of [177Lu]VK-03-27 [3] |
| --- | --- | --- | --- | --- |
| O=C(O)CCC(OC(=O)NC(CCCCNC(=O)c1ccc(I)cc1F)C(=O)O)C(=O)O (stereo not drawn) [Compound 24] | 9.70 | high initial renal uptake that decreases over time | high uptake |  |
| O=C(O)CCC(OC(=O)NC(CCCCNC(=O)c1ccc(Br)cc1F)C(=O)O)C(=O)O (stereo not drawn) [Compound 25] | 10.00 | high initial renal uptake that decreases over time | high uptake |  |
| O=C(O)CC[C@H](NC(=O)N[C@@H](CCC(=O)NCCc1ccc(I)cc1)C(=O)O)C(=O)O [HS-549] |  | high initial kidney uptake | high PSMA+Pip tumor uptake |  |
| O=C(O)CC[C@H](NC(=O)N[C@@H](CCCCN(Cc1ccc(Br)cc1)C(=O)CCCCNC(=O)CCC(C(=O)O)N1CCN(CC(=O)O)CCN(CC(=O)O)CCN(CC(=O)O)CC1)C(=O)O)C(=O)O (stereo partly drawn) [VK-03-27] |  |  |  | reduces the uptake in kidneys, salivary glands and Lacrimal glands |
